Molecules are shown by their SMILES. Several values for one entry are separate records, joined by “and”; a condition that tells them apart may be missing. Identical values can stand only once. Entries after “also recorded” stand apart in the source; their conditions may differ. Like-named read-outs stand apart in the source and are kept apart here.

Test [1] concerns the target SARS-CoV-2 NSP3 macrodomain (Mac1), P43 crystal form (Severe acute respiratory syndrome coronavirus 2, UniProt P0DTD1). Format: binding. The conditions noted are these: for 1-BDC: PanDDA background density correction; for X-ray crystal structure: X-ray crystal structure determined (TRUE); for Total number of conformations: ligand conformations modeled in Mac1 crystal structure; for Binding site: site of ligand in X-ray crystal structure; for X-ray crystallography: Binding site: site where the ligand is bound in the X-ray crystal structure.

In test [2] the target is SARS-CoV-2 NSP3 macrodomain (Mac1) (Severe acute respiratory syndrome coronavirus 2, UniProt P0DTD1). The test can be described thus: biochemical. Format: binding. The conditions noted are these: for SARS CoV-2 macrodomain HTRF assay: Hillslope: dose-response fit; for Average % competition: 200 μM, mean of three technical replicates. On the technique in general: In TR-FRET formats the signal depends on donor and acceptor labels being close together.

Setting [3] is: crystal soak 10 mM, P43 crystals.
[4] abbreviates: occupancy estimate from PanDDA BDC.
The mark [5] stands for this setting: SARS CoV-2 macrodomain HTRF assay, dose-response.
[6] abbreviates: crystal soak, soak concentration 10 mM.
The mark [7] stands for this setting: crystal soak, soak concentration 10 mM, TRUE = ligand hit.
Setting [8] is: occupancy estimate from PanDDA 1-BDC.
Where [9] appears, read: preliminary screen, compound at 200 μM, mean of 3-4 technical replicates, read-out: % competition in HTRF assay.
Setting [10] is: crystal soak concentration 10 mM, event 1.
[11] abbreviates: crystal soak concentration 10 mM, P43 crystals.
[12] abbreviates: crystal soak concentration 10 mM.
[13] abbreviates: crystal soak concentration 20 mM, P43 crystals.

Turning to `O=C(O)C(F)(F)F.OC[C@H](Cc1ccc(O)cc1)Nc1ncnc2[nH]ccc12` [AVI-4066], in test [1], the “Occupancy difference (refined_occupancy - 2*(1-BDC))” value (“Occupancy difference” for short) is 10, the “Refined ligand occupancy (%)” value turned out to be 50%, the 1-BDC is 0.2 and the X-ray crystal structure result is on record as “TRUE”. Further, in test [1], the “Total number of conformations” value is 1 and the Binding site entry is on record as “Adenosine”. For the same compound, the “Hit (PanDDA run, overall)” value in test [1] (setting [3]) is given as “TRUE”. Moreover, the “Hit (PanDDA run, DMSO background map)” value in test [1] (crystal soak 10 mM) is listed as “TRUE”. For the same compound, the “1-BDC (PanDDA run, DMSO background map)” value in test [1] (crystal soak 10 mM, event 1) was 0.2 and 0.37 and 0.38. Moreover, in test [1] (setting [4]), the “2*(1-BDC) (%)” value is given as 40%. In addition, in test [1] (occupancy of TFA in the dataset of the named ligand), the “Refined TFA occupancy (%)” value is on record as 20%. For the same compound, the Hill slope (in general, a measure of the steepness of the concentration-response curve) in test [2] (HTRF dose-response fit, Mac1) is 1.1. The Hill slope in test [2] (setting [5]) is 1.1.
As for `O=C(O)C(F)(F)F.OC1([C@H]2CCCN2c2ncnc3[nH]ccc23)Cc2ccccc2C1` [AVI-3731], in test [1], the 1-BDC was found to be 0.2, the “Total number of conformations” value came to 1 and the “X-ray crystallography: Binding site” value was “Adenosine”. In test [1] (setting [6]), the “Pandda run, overall: Modeled” value is on record as “TRUE”. The “Pandda run, overall: Hit” value in test [1] (setting [7]) was “TRUE”. The “2*(1-BDC) (%)” value in test [1] (setting [8]) was 40%. Further, in test [1] (soak concentration 10 mM), the “PanDDA run, DMSO background map: 1-BDC” value is on record as 0.2 and the “PanDDA run, DMSO background map: Hit” value is reported as “TRUE”. Also, the Hill slope in test [2] (HTRF dose-response fit, Mac1) came to 1.1. For the same compound, the inhibition at 200 µM in test [2] (Single dose, concentration 200 μM, read-out: SARS CoV-2 macrodomain HTRF assay: Average % competition) is 100%. For the same compound, the “SARS CoV-2 macrodomain HTRF assay: Hillslope” value in test [2] was found to be 1.1. Moreover, the inhibition at 200 µM in test [2] (setting [9]) turned out to be 100%.
As for `OC1(CNc2ncnc3[nH]ccc23)CCCOC1` (stereo not drawn) [AVI-4311], in test [1], the “Occupancy difference” value stood at 0, the “Refined ligand occupancy (%)” value worked out at 50%, the 1-BDC is 0.25 and the “Total number of conformations” value came out at 1. Moreover, in test [1], the “X-ray crystallography: Binding site” value is on record as “Adenosine”. The “PanDDA run, DMSO background map: 1-BDC” value in test [1] (event 1) is reported as 0.3. Besides, the “Hit (PanDDA run, overall)” value in test [1] (setting [3]) was “TRUE”. For the same compound, the “Hit (PanDDA run, DMSO background map)” value in test [1] (crystal soak 10 mM) was “TRUE”. Besides, the “1-BDC (PanDDA run, DMSO background map)” value in test [1] (crystal soak 10 mM, event 1) turned out to be 0.25. Further, in test [1] (setting [4]), the “2*(1-BDC) (%)” value is given as 50%. Further, in test [2] (HTRF dose-response fit, Mac1), the Hill slope was 1.4. Also, the “SARS CoV-2 macrodomain HTRF assay: Hillslope” value in test [2] is given as 1.4.
Turning to `O=C(O)C(F)(F)F.OCC1(Nc2ncnc3[nH]ccc23)CCCC1` [AVI-3692], in test [1], the 1-BDC amounted to 0.22, the X-ray crystal structure result is “TRUE”, the “Total number of conformations” value is 1 and the Binding site result is “Adenosine”. In addition, in test [1] (setting [3]), the “Pandda run, overall: Hit” value was “TRUE” and the “Pandda run, overall: Modeled” value is on record as “TRUE”. Also, in test [1] (crystal soak 10 mM), the “PanDDA run, DMSO background map: 1-BDC” value was 0.22 and the “PanDDA run, DMSO background map: Hit” value is on record as “TRUE”. Besides, the “2*(1-BDC) (%)” value in test [1] (setting [8]) is 44%. This compound also returned a Hill slope in test [2] (HTRF dose-response fit, Mac1) of 1.3. The compound further gave a Hill slope in test [2] (setting [5]) of 1.3. Further, the inhibition at 200 µM in test [2] (Single dose, concentration 200 μM, read-out: Average % competition) was 85%. Further, the inhibition at 200 µM in test [2] (setting [9]) worked out at 85%.
For `CC(C)(O)C1N(c2ncnc3[nH]ccc23)CCC1(C)C` (stereo not drawn) [AVI-4126], in test [1], the “Occupancy difference” value was 8, the “Phe132 loop open state” value was “TRUE”, the “Refined ligand occupancy (%)” value worked out at 40% and the 1-BDC was 0.16. Further, in test [1], the “Total number of conformations” value was 2 and the “X-ray crystallography: Binding site” value is reported as “Adenosine”. In addition, the “PanDDA run, DMSO background map: 1-BDC” value in test [1] (setting [10]) is 0.17 and 0.16. Moreover, in test [1] (setting [11]), the “Pandda run, overall: Hit” value is “TRUE”; the “Pandda run, overall: Modeled” value is given as “TRUE”; the “Pandda run, overall: Modeling comment” value is “Duplicate, not modeled”. In test [1] (setting [12]), the “PanDDA run, DMSO background map: Hit” value is reported as “TRUE” and the “PanDDA run, DMSO background map: Modeled” value was “TRUE”. Further, in test [1] (setting [4]), the “2*(1-BDC) (%)” value was 32%. This compound also had a Hill slope in test [2] (HTRF dose-response fit, Mac1) of 1.3. The “SARS CoV-2 macrodomain HTRF assay: Hillslope” value in test [2] is reported as 1.3.
With `CC1CCCC(O)(CNc2ncnc3[nH]ccc23)C1` (stereo not drawn) [AVI-4307], in test [1], the “Occupancy difference” value turned out to be 0, the “Refined ligand occupancy (%)” value was determined as 34%, the 1-BDC is on record as 0.17 and the “Total number of conformations” value is 1. Moreover, the “X-ray crystallography: Binding site” value in test [1] was “Adenosine”. The “PanDDA run, DMSO background map: 1-BDC” value in test [1] (event 1) is on record as 0.26. Moreover, the “Hit (PanDDA run, overall)” value in test [1] (setting [3]) is listed as “TRUE”. The “Hit (PanDDA run, DMSO background map)” value in test [1] (crystal soak 10 mM) is recorded as “TRUE”. Further, in test [1] (crystal soak 10 mM, event 1), the “1-BDC (PanDDA run, DMSO background map)” value turned out to be 0.17. Besides, the “2*(1-BDC) (%)” value in test [1] (setting [4]) is 34%. Besides, the Hill slope in test [2] (HTRF dose-response fit, Mac1) is on record as 1.0. Moreover, the “SARS CoV-2 macrodomain HTRF assay: Hillslope” value in test [2] is reported as 1.0.
As to `O[C@H]1COC[C@@H]1Nc1ncnc2[nH]ccc12` [AVI-1444, (3R,4S)-4-((7H-pyrrolo[2,3-d]pyrimidin-4-yl)amino)tetrahydrofuran-3-ol], in test [1], the 1-BDC worked out at 0.08, the X-ray crystal structure entry is given as “TRUE”, the “Total number of conformations” value is reported as 1 and the Binding site result is given as “Adenosine”. Besides, in test [1] (setting [6]), the “Pandda run, overall: Modeled” value was “TRUE”. Further, in test [1] (setting [7]), the “Pandda run, overall: Hit” value is “TRUE”. In addition, the “2*(1-BDC) (%)” value in test [1] (setting [8]) is listed as 16%. In addition, in test [1] (soak concentration 10 mM), the “PanDDA run, DMSO background map: 1-BDC” value is 0.08 and 0.11; the “PanDDA run, DMSO background map: Hit” value is “TRUE”. Also, the IC50 (commonly the concentration that gives 50% inhibition) in test [2] (SARS CoV-2 macrodomain HTRF assay, dose-response, read-out: IC50) was more than 1 mM.
Take `CCn1c(C)nnc1Sc1cnc2ccccc2n1` [AVI-297]: in test [1] (setting [6]), the “Pandda run, overall: Modeling comment” value is given as “Only density for quinoxaline, not modeled” and the “PanDDA run, DMSO background map: Hit” value is on record as “TRUE”. Besides, the “Pandda run, overall: Hit” value in test [1] (crystal soak, soak concentration 10 mM, P43 crystals, TRUE = ligand-binding event identified) is recorded as “TRUE”. In test [1] (crystal soak, soak concentration 10 mM, event 1), the “PanDDA run, DMSO background map: 1-BDC” value was 0.05. This compound gave an Average % competition in test [2] (Single dose) of 0%.
For `COc1ccc(NC(=O)NC2CCCC2)cc1-n1nnnc1C` [AVI-311], the “PanDDA run, DMSO background map: 1-BDC” value in test [1] (setting [10]) was determined as 0.09; in test [1] (crystal soak concentration 20 mM, event 1), 0.12. Also, the “Pandda run, overall: Hit” value in test [1] (setting [11]) and in test [1] (setting [13]) was “TRUE” throughout. Also, the “Pandda run, overall: Modeling comment” value in test [1] (setting [11]) is “Weak density, not modeled”; in test [1] (setting [13]) it was “Weak density, not modeled”. Further, the “PanDDA run, DMSO background map: Hit” value in test [1] (setting [12]) and in test [1] (crystal soak concentration 20 mM) was “TRUE” in each case. Also, the Average % competition in test [2] (Single dose) is on record as 0%.
On to `CC1(C)CCC(O)(CNc2ncnc3[nH]ccc23)CC1` [AVI-4310], for which the “PanDDA run, DMSO background map: 1-BDC” value in test [1] (event 1) came out at 0.17. Moreover, in test [1] (crystal soak 10 mM), the “Modeling comment (PanDDA run, overall)” value is reported as “Weak density, not modeled” and the “Hit (PanDDA run, DMSO background map)” value is reported as “TRUE”. For the same compound, in test [1] (setting [3]), the “Hit (PanDDA run, overall)” value is recorded as “TRUE”. In test [1] (crystal soak 10 mM, event 1), the “1-BDC (PanDDA run, DMSO background map)” value is 0.14. In test [2] (HTRF dose-response fit, Mac1), this compound had a Hill slope of 1.3. Further, the “SARS CoV-2 macrodomain HTRF assay: Hillslope” value in test [2] is 1.3.
For `CC(C)(O)C1C2CCC2CN1c1ncnc2[nH]ccc12` (stereo not drawn) [AVI-4128], in test [1], the “Occupancy difference” value is 20, the “Refined ligand occupancy (%)” value was 60%, the 1-BDC came to 0.2 and the “Total number of conformations” value is on record as 1. In test [1], the “X-ray crystallography: Binding site” value is listed as “Adenosine”. Also, the Comment entry in test [1] (comment on ligand modeling / Phe132 loop density) was “Weak density for open conformation”. For the same compound, the “PanDDA run, DMSO background map: 1-BDC” value in test [1] (setting [10]) is 0.27 and 0.2. In addition, in test [1] (setting [11]), the “Pandda run, overall: Hit” value was “TRUE”; the “Pandda run, overall: Modeled” value is “TRUE”; the “Pandda run, overall: Modeling comment” value was “Duplicate, not modeled; also recorded: Weak density for open conformation”. For the same compound, in test [1] (setting [12]), the “PanDDA run, DMSO background map: Hit” value was “TRUE” and the “PanDDA run, DMSO background map: Modeled” value is on record as “TRUE”. The “2*(1-BDC) (%)” value in test [1] (setting [4]) is reported as 40%. This compound also returned a Hill slope in test [2] (HTRF dose-response fit, Mac1) of 1.2. Moreover, in test [2], the “SARS CoV-2 macrodomain HTRF assay: Hillslope” value is listed as 1.2.

The values above are taken from publication doi:10.1101/2024.08.25.609621 (bioRxiv, 2024).
